Test results published in ChEMBL document CHEMBL1201862, “PubChem BioAssay data set” (2004).
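Each compound was tested at five concentrations against cells in 96-well plates for 48 hours. At the GI50, growth is halved.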 Active and inactive are the calls of the source. Cut-off read from the data, not from the text of the source: active = GI50 up to about 1.1 µM and inactive = higher. Residues, ends and D or L forms follow the SMILES beside them.

What was measured:
Assay in all cases: NCI tumour cell line growth inhibition, 48 h
Hs-578T = tested on: Hs-578T
NCI/ADR-RES = tested on: NCI/ADR-RES
SN12C = tested on: SN12C
HCT-15 = tested on: HCT-15
COLO 205 = tested on: COLO 205
SF-295 = tested on: SF-295
SK-MEL-5 = tested on: SK-MEL-5
MOLT-4 = tested on: MOLT-4
NCI-H23 = tested on: NCI-H23
SR = tested on: SR
CCRF-CEM = tested on: CCRF-CEM
IGROV-1 = tested on: IGROV-1
ACHN = tested on: ACHN
K562 = tested on: K562
HOP-92 = tested on: HOP-92
MDA-N = tested on: MDA-N
SF-539 = tested on: SF-539
SK-MEL-2 = tested on: SK-MEL-2
RPMI-8226 = tested on: RPMI-8226
SK-MEL-28 = tested on: SK-MEL-28

SMILES	GI50 (Hs-578T)	GI50 (NCI/ADR-RES)	GI50 (SN12C)	GI50 (HCT-15) [µM]	GI50 (COLO 205)	GI50 (SF-295)	GI50 (SK-MEL-5)	GI50 (MOLT-4)	GI50 (NCI-H23)	GI50 (SR)	GI50 (CCRF-CEM)	GI50 (IGROV-1)	GI50 (ACHN)	GI50 (K562)	GI50 (HOP-92)	GI50 (MDA-N)	GI50 (SF-539)	GI50 (SK-MEL-2)	GI50 (RPMI-8226)	GI50 (SK-MEL-28)
COC(=O)c1c2c(cc3c1CC1(Cc4cc5c(cc4C1)CCCC5)C3)CCCC2	> 100 µM (inactive)	> 100 µM (inactive)	> 100 µM (inactive)	> 100	> 100 µM (inactive)	> 100 µM (inactive)	> 100 µM (inactive)	> 100 µM (inactive)	> 100 µM (inactive)	27.5 µM (inactive)	12 µM (inactive)	> 100 µM (inactive)	> 100 µM (inactive)	> 100 µM (inactive)	> 100 µM (inactive)	> 100 µM (inactive)	> 100 µM (inactive)	> 100 µM (inactive)	> 100 µM (inactive)	
CCCCn1c(C)c2c(c1C)C(=O)N(CCN1CCN(c3ccccc3Cl)CC1)C2=O	> 100 µM (inactive)	46.7 µM (inactive)	26.7 µM (inactive)	35.6	35 µM (inactive)	23.1 µM (inactive)	19.9 µM (inactive)	22 µM (inactive)	27.2 µM (inactive)	26.4 µM (inactive)	29.3 µM (inactive)	30.9 µM (inactive)	38.1 µM (inactive)	31.6 µM (inactive)	25.4 µM (inactive)	34.6 µM (inactive)	17.9 µM (inactive)	20 µM (inactive)	24.7 µM (inactive)	
C=CCOc1ccc(C2(c3ccc(OCC=C)cc3)C(=O)Nc3ccccc32)cc1	1.46 µM (inactive)	> 10 µM (inactive)	> 10 µM (inactive)	> 10	7.19 µM (inactive)	> 10 µM (inactive)	> 10 µM (inactive)	> 10 µM (inactive)	> 10 µM (inactive)	> 10 µM (inactive)	> 10 µM (inactive)	> 10 µM (inactive)	> 10 µM (inactive)	> 10 µM (inactive)	> 10 µM (inactive)	> 10 µM (inactive)	> 10 µM (inactive)	> 10 µM (inactive)	> 10 µM (inactive)	> 10 µM (inactive)
O=C(O)c1ccc(NC(NC(=O)C(C(F)(F)F)C(F)(F)F)(C(F)(F)F)C(F)(F)F)cc1	> 100 µM (inactive)	> 100 µM (inactive)	> 100 µM (inactive)	> 100	> 100 µM (inactive)		> 100 µM (inactive)	> 100 µM (inactive)	> 100 µM (inactive)	> 100 µM (inactive)	> 100 µM (inactive)	> 100 µM (inactive)	> 100 µM (inactive)	> 100 µM (inactive)		> 100 µM (inactive)	> 100 µM (inactive)	> 100 µM (inactive)	> 100 µM (inactive)	> 100 µM (inactive)
C=CCOc1cccc(C2(O)c3ccccc3C3=NCCCN32)c1 (stereo not drawn)	28.6 µM (inactive)	> 35.2 µM (inactive)	31.1 µM (inactive)	20.6	15 µM (inactive)		17 µM (inactive)	10.2 µM (inactive)	10.3 µM (inactive)	8.81 µM (inactive)	15.4 µM (inactive)	8.38 µM (inactive)	3.63 µM (inactive)	4.58 µM (inactive)	21.8 µM (inactive)	17.1 µM (inactive)	15.8 µM (inactive)	1.72 µM (inactive)	15.2 µM (inactive)	5.51 µM (inactive)
CCC(C)C(NC(=O)C(CCCCN)NC(=O)C(NC(=O)C(CCC(N)=O)NC(=O)C(N)CCCNC(=N)N)C(C)CC)C(=O)NC(Cc1c[nH]c2ccccc12)C(=O)NC(Cc1ccccc1)C(=O)NC(CCC(N)=O)C(=O)NC(CC(N)=O)C(=O)NC(CCCNC(=N)N)C(=O)NC(CCCNC(=N)N)C(=O)NC(CCSC)C(=O)NC(CCCCN)C(=O)NC(Cc1c[nH]c2ccccc12)C(=O)NC(CCCCN)C(=O)NC(CCCCN)C(=O)N1CCCC1C(=O)NC(C)C(=O)NC(CCCCN)C(=O)NC(CCCNC(=N)N)C(=O)NC(CCCCN)C(=O)NC(CC(C)C)C(=O)NC(Cc1ccccc1)C(=O)NCC(=O)O (stereo not drawn) (H-RQIKIWFQNRRMKWKKPAKRKLFG-OH; configuration not given here)	21.1 µM (inactive)	> 25 µM (inactive)	> 25 µM (inactive)	> 25	> 25 µM (inactive)	> 25 µM (inactive)	16.5 µM (inactive)	> 25 µM (inactive)	> 25 µM (inactive)	> 25 µM (inactive)	12.4 µM (inactive)	> 25 µM (inactive)	> 25 µM (inactive)	> 25 µM (inactive)	9.64 µM (inactive)	> 25 µM (inactive)		> 25 µM (inactive)	5.93 µM (inactive)	> 25 µM (inactive)
CC(C)=CCC[C@@H](C)C1=CC(=O)C(C)=C(O)C1=O [ISOPEREZONE]	6.43 µM (inactive)	3.19 µM (inactive)	10.7 µM (inactive)	2.66	10.2 µM (inactive)	14.1 µM (inactive)	6.12 µM (inactive)	1.71 µM (inactive)	6.75 µM (inactive)	2.39 µM (inactive)	1.19 µM (inactive)	9.2 µM (inactive)	3.85 µM (inactive)	1.58 µM (inactive)	2.5 µM (inactive)	4.81 µM (inactive)		9.64 µM (inactive)	0.445 µM (active)	11 µM (inactive)
